From ChEMBL document CHEMBL4368861 (Medchemcomm, 2018) come the findings set out here.

In the first series the test system is Trypanosoma brucei brucei. Put plainly: Antitrypanosomal activity against Trypanosoma brucei brucei by pathogen box screening based assay.
Conditions: not given
The format is functional, organism-based.
Molecule `Cc1nn2c(=O)c3c([nH]c2c1-c1ccc(Cl)cc1)CCCC3` returned an IC50 of 0.5 µM.

Tested on in a further series: not listed separately
The series can be described thus: in vitro. The conditions noted are these: human.
`Cc1cnc(N2CCN[C@@H](Cc3ccccc3)C2)nc1Oc1ccc(-n2ccnc2)cc1`: the selectivity ratio was determined as 4.9.
Turning to `COc1ccc2nccc(NC(=O)C3CCN(CCc4ccc(Cl)cc4)CC3)c2n1`, the selectivity ratio was 0.8.
Same read-out and setting: the figure for `CCOC(=O)c1c(NC(=O)c2c(F)c(F)c(F)c(F)c2F)sc(C(N)=O)c1C` is 2.2; for `CC(Oc1ccccc1)C(=O)Nc1nc(-c2ccccn2)cs1` (configuration not stated) it is 11.
Regarding `COc1ccc(OC)c(NCc2ccc3nc(N)nc(N)c3c2Cl)c1`, the selectivity ratio was found to be 21.
The same measure, in the same setting: to `COc1cc(-c2cc(-c3ccc(S(C)(=O)=O)cc3)cnc2N)ccc1O` belongs 76.
On the same count and under the same terms, to `OCCc1ccc(Nc2nccc(-c3nnc4ccccn34)n2)cc1` belongs 17; to `c1ccc(-c2nc(NC3CCCCC3)cc(C3CC3)n2)nc1`, 30.
Same read-out and setting: the figure for `CS(=O)(=O)c1ccc(C(=O)N(CC2CCCO2)c2nc3ccccc3s2)cc1[N+](=O)[O-]` (configuration not stated) is 2.3; for `CN1CCC(NCc2cccc(-c3ccc(S(=O)(=O)NCc4ccccc4)cc3)c2)CC1` it is 59.
Turning to `Oc1c(I)cc(I)c2cccnc12` [IODOQUINOL], the selectivity ratio came to 13.
The same measure, in the same setting: the figure for `CCCn1c(NC(=O)c2ccc3ccccc3n2)nc2ccccc21` is 3.5.
The same measure, in the same setting: the figure for `CC(C)n1nc(-c2cc3c(Cl)cccc3[nH]2)c2c(N)ncnc21` is 5.8.
Still for that read-out and setting: to `CN(C)c1cc(NC(=O)Nc2ccccc2)c2ccccc2n1` belongs 5.3; to `COC(=O)c1c(NC(=O)c2c(F)c(F)c(F)c(F)c2F)sc2c1CCCCC2`, 2.2.

The test system of the next series is Trypanosoma brucei brucei. The series can be described thus: microbe, parasite or virus in culture. It is filed as functional, organism-based. The conditions noted are these: 427.
With `N=C(N)c1ccc(-c2cc(-c3ccccc3)on2)cc1`, the IC50 was 3.5 µM.
`CNC(=O)C1Cc2ccccc2N1C(=O)Cc1ccc(F)cc1` (configuration not stated) registered an IC50 of 1.5 µM.
In the case of `O=C(Nc1ccc2c(c1)B(O)OC2)c1ccccc1C(F)(F)F`, the IC50 was 0.11 µM.
Same read-out and setting: the figure for `Cc1ccc2c(c1C)NC(=O)C21NN=C(c2ccccc2)S1` (configuration not stated) is 4.68 µM; for `O=C(NCCc1ccn(-c2ccccc2)n1)C1CCCCC1` it is 0.27 µM; for `COc1ccc(C(=N)N)cc1-c1cn(-c2ccc(C(=N)N)cc2)nn1` it is 0.27 µM.
On the same count and under the same terms, the figure for `Cc1ccc(S(=O)(=O)Nc2ccc(CN3CCN(C(=O)c4cccc(C#N)c4)CC3)cc2)cc1` is 0.24 µM.
On the same count and under the same terms, the figure for `CCc1ccccc1-n1c(C)cn2c3c(=O)n(C(C(=O)OC)C(C)C)c(=O)n(C)c3nc12` (configuration not stated) is 0.13 µM.
For the molecule `CCC(=O)Nc1ccccc1C(=O)Nc1ccccn1`, the midpoint of inhibition, the IC50, lay at 1 µM.
As to `CCOC(=O)c1c(NC(=O)c2c(F)c(F)c(F)c(F)c2F)sc(C(N)=O)c1C`, the midpoint of inhibition, the IC50, lay at 2.99 µM.
Still for that read-out and setting: to `CC1=Nc2ccc(Cl)cc2C(O)(c2ccc(C)cc2)N1CCN1CCCCC1` (configuration not stated) belongs 4.5 µM; to `CC(Oc1ccccc1)C(=O)Nc1nc(-c2ccccn2)cs1` (configuration not stated), 3.22 µM.
In turn, `O=C(Nc1ccccc1)c1ccc(-c2cc3ccncc3cc2OC2CCNCC2)s1` displayed an IC50 of 2.72 µM.
Still for that read-out and setting: the figure for `N=C(N)Nc1ccc(-c2ccc(-c3ccc(N=C(N)N)c(Cl)c3)o2)cc1Cl` is 0.52 µM; for `c1ccc(Oc2ccc(-c3cc(N4CCNCC4)[nH]n3)cc2)cc1` it is 5.1 µM; for `O=C(Nc1ccc(N2CCNCC2)cc1)c1ccn2ncc(-c3cccc(Cl)c3)c2n1` it is 1.45 µM.
The same measure, in the same setting: the figure for `COc1ccc(OC)c(NCc2ccc3nc(N)nc(N)c3c2Cl)c1` is 2.07 µM; for `Cc1ncc(-c2ccnc(Nc3ccc(S(C)(=O)=O)cc3)n2)n1C(C)C` [AZD-5438] it is 0.14 µM.
Same read-out and setting: to `NCCN(C(=O)c1ccc(Cl)cc1Cl)c1ccc(OCc2ccc(Cl)cc2)cc1` belongs 0.24 µM; to `Cc1nn2c(=O)c3c([nH]c2c1-c1ccc(Cl)cc1)CCCC3`, 1.8 µM; to `Cc1nn(C)c(C)c1NS(=O)(=O)c1c(Cl)cc(-c2ccnc(N3CCNCC3)c2)cc1Cl`, 0.01 µM.
`CNC(=O)c1nn(C)c2c1C(C)(C)Cc1cnc(Nc3ccc(N4CCN(C)CC4)cc3)nc1-2` [MILCICLIB] gave an IC50 of 0.17 µM.
Still for that read-out and setting: to `CS(=O)(=O)c1ccccc1C(=O)N(Cc1ccccc1)c1ccccc1` belongs 0.5 µM; to `OCCc1ccc(Nc2nccc(-c3nnc4ccccn34)n2)cc1`, 2.39 µM.
Same read-out and setting: the figure for `CC1CCCCN1C(=O)NCCc1coc(-c2ccc(F)cc2)n1` (configuration not stated) is 0.13 µM; for `c1ccc(-c2nc(NC3CCCCC3)cc(C3CC3)n2)nc1` it is 3.51 µM.
`CS(=O)(=O)c1ccc(C(=O)N(CC2CCCO2)c2nc3ccccc3s2)cc1[N+](=O)[O-]` (configuration not stated) displayed a concentration for half-maximal inhibition (IC50) of 3.49 µM.
Still for that read-out and setting: the figure for `CCN(CC)S(=O)(=O)c1ccc(C(=O)Nc2cc(C)nn2-c2nc(C)c(C)c(=O)[nH]2)cc1` is 4.3 µM; for `CN1CCC(NCc2cccc(-c3ccc(S(=O)(=O)NCc4ccccc4)cc3)c2)CC1` it is 2.38 µM.
On the same count and under the same terms, to `CO[C@@H](C(=O)N1Cc2[nH]nc(NC(=O)c3ccc(N4CCN(C)CC4)cc3)c2C1)c1ccccc1` [DANUSERTIB] belongs 1.3 µM; to `COc1cccc(-n2nnnc2S(C)(=O)=O)c1`, 4.12 µM.
The molecule `CC(C)n1nc(-c2cc3c(Cl)cccc3[nH]2)c2c(N)ncnc21` came in with an IC50 of 6.1 µM.
With `COc1ccc(C2=NN(C3CCCCCC3)C(=O)C2(C)C)cc1OCCCCOc1ccc(-c2nn[nH]n2)cc1`, the IC50 was found to be 2.3 µM.
Same read-out and setting: the figure for `CC(C)(C)c1cnc(NC(=O)c2ccccc2O)s1` is 5.45 µM.
`Nc1nc2cc(-c3cncc(Oc4ccc(F)cc4)c3)ccc2[nH]1` showed a half-maximal inhibitory concentration (IC50) of 1.05 µM.
Consider `O=C(Nc1ccc(F)c(-c2nc3cc(-c4ccccc4)cnc3[nH]2)c1)N1CCCC1`, for which the IC50 worked out at 0.02 µM.
The molecule `O=C(NCc1nnc2n1CCCCC2)c1ccc(-c2ccc(F)cc2)o1` had an IC50 of 0.23 µM.
Still for that read-out and setting: to `CCCCN(CCCC)c1c(C#N)cc(S(=O)(=O)Nc2ccccc2)cc1C#N` belongs 1.2 µM; to `Cc1noc(C)c1COc1cccc(C(=O)N=c2[nH]cccc2C)c1`, 1.2 µM.
Consider `CN(C)c1cc(NC(=O)Nc2ccccc2)c2ccccc2n1`, for which the IC50 was determined as 3.36 µM.
On the same count and under the same terms, to `Cc1[nH]c2ccccc2c1C(c1cccs1)N1CCN(C)CC1` (configuration not stated) belongs 1.5 µM.
As to `O=C(NCCc1ccccc1)c1cc(-c2cccnc2)cnc1NCC1CC1`, half-maximal inhibition (IC50) required 6.02 µM.
On the same count and under the same terms, to `Cc1ccc2[nH]c(C3CCCNC3)c(-c3ccncc3)c2c1` (configuration not stated) belongs 5.15 µM.
Still for that read-out and setting: the figure for `Nc1nccc2ccc(-c3ccc4nccn4c3)cc12` is 3.29 µM; for `c1ccc(Oc2ccc(-c3cc(C4CCOCC4)[nH]n3)cc2)cc1` it is 1.8 µM; for `COc1ccc(S(=O)(=O)Nc2ccc(CN3CCN(C(=O)c4cccc(C#N)c4)CC3)cc2)cc1` it is 1.1 µM.
Still for that read-out and setting: the figure for `N=C(N)Nc1ccc(-c2ccc(-c3ccc(NC(=N)N)cc3Cl)o2)c(Cl)c1` is 5.7 µM; for `O=C(Nc1nc(-c2ccccn2)cs1)c1cncn1-c1ccccc1` it is 2.87 µM.
As to `COc1ccc(C2=NN(C3CCCCCC3)C(=O)[C@@H]3CC=CC[C@H]23)cc1OCCCCOc1ccc(-c2nnn[nH]2)cc1`, the IC50 is 0.5 µM.
On to `O=C(Nc1ccc(C(F)(F)F)c(C(F)(F)F)c1)c1cc(Cl)ccc1O`, for which inhibition was half-maximal at 0.66 µM (IC50).
Still for that read-out and setting: to `CN1CCN(S(=O)(=O)c2ccc(-c3ccc4c(Nc5ncc(Cl)cn5)ccnc4c3)cc2)CC1` belongs 5.3 µM.

As usually defined, the IC50 is the concentration at which inhibition is half-maximal. Read a low IC50 as inhibition by little substance.
